Measurements as given in EP4029502A1, “PYRAZOLINE-DERIVED COMPOUND (ENFLICOXIB) FOR USE IN THE PREVENTION AND/OR TREATMENT OF PAIN AND INFLAMMATION ASSOCIATED TO SURGERY IN MAMMALS” (Ecuphar N.V., priority 2021, dated 2022).
Read-outs that look alike come from different tables or passages of the source.

Tests used:
[1] = test system: dogs undergoing orthopaedic surgery; assay: Non-inferiority field study of postoperative pain and inflammation after orthopaedic surgery, meloxicam-controlled (SFGCMPS, VAS); assay type: in vivo
Text: The study was a non-inferiority, multicentre, prospective, parallel-controlled, randomized and blinded field study.
Thirty-two dogs of different breed, age and weight presenting at the veterinary practice for orthopaedic surgery were included.
Agents with analgesic effect were permitted as premedication. However, intraoperative or postoperative analgesia were not permitted.
For each dog the study lasted twelve days. Two days before surgery, all animals were weighed and underwent a thorough physical examination with clinical pathology to confirm the good health status of the animals before inclusion. Day 0 (D0) was the day dogs underwent surgery and t0h corresponded to the end of surgery (extubation). The physical examination was repeated on D0, before surgery (t-2h) and before dispatch (t8h) and again at t24h (D1) and t168 (D7) post-surgery. Clinical assessments of pain and inflammation were blindly performed on D0, before surgery (t-2h) and again at t1.5h, t3h, t5h, t8h, t24h (D1) and t168h (D7) post-surgery. The global efficacy of treatments was assessed on D7. From day D1 to day D7 post-surgery, the owners assessed the dog's wellbeing.
The primary endpoint for efficacy comprises the sum of scores for the SFGCMPS scale, which was assessed at different time points by the Investigator.
From day D1 to D7, owners daily assessed the dogs' wellbeing using scales for: • Demeanour (0=normal; 1=slightly modified; 2=moderately modified; 3=markedly modified and 4=severely modified). • Mobility (0=normal; 1=slightly impaired; 2=moderately impaired; 3=markedly impaired and 4=severely impaired). • Quality of analgesia as very satisfactory (=1); satisfactory (=2); not very satisfactory (=3); not at all satisfactory (=4).
Blood samples were collected from all animals before inclusion (≤ D-2), for routine pre-surgery blood profile. Potential adverse effects related to the products were also recorded.
Statistical Analysis was performed by use of commercially available software. All analyses used a two-sided significance level α = 0.05. […]

[2] = test system: dogs undergoing soft tissue surgery; assay type: in vivo; design: Vocalization (SFGCMPS average value) / Attention to wound (SFGCMPS average value) / Mobility (SFGCMPS average value) / Demeanour (SFGCMPS average value) / Posture/Activity (SFGCMPS average value) / Total SFGCMPS (average value): scale not given here
Text: The study was a single centre, prospective, parallel-controlled, randomized and blinded pilot field trial with a negative (Placebo) control to evaluate the efficacy of E-6087 in dogs undergoing elective soft tissue surgery.
Twenty dogs (17 females and 3 males) were included in the study. Dogs were of different breeds or crossbreed, ages from 3 months to 7 years and weights from 4 to 34 kg. All dogs were clinically healthy other than the condition causing the animal to go under surgery.
Two days before surgery animals were weighed, a detailed physical examination was performed, and blood samples were collected for routine haematology and biochemistry to confirm the good health status of the animals before inclusion.
Dogs were randomly allocated to receive either E-6087 or Placebo as oral tablets. E-6087 and Placebo tablets were similar (same appearance and packaging), therefore treatment administration, clinical examinations and blood sample analysis was always blind.
E-6087 was administered at the dose of 8 mg/kg on day D-1, approximately 24h before surgery scheduled time, before the first meal of the day. Placebo tablets were administered following the same posology.
Surgeries were performed in the morning, on day D0 by the Investigator (Surgeon). All surgeries were performed under the same anaesthesia protocol. Premedication was performed with medetomidine and morphine both at 0.1 ml/10 kg followed by anaesthesia maintained with Tiletamine/Zolazepam (Zoletil®). Local anaesthesia was not permitted. At the end of surgery, antibiotic therapy was administered to all dogs following the post-operative protocol stablished: amoxicillin (trihydrate) at 15 mg of amoxicillin/kg bw in a single dose.
Clinical assessments of postoperative pain and inflammation were done by the Investigator (Examining Veterinarian) using the SFGCMPS (13). Visual Analog Scales (VAS) were also used to assess pain at rest and under palpation as well as the level of inflammation.
On D0 at approximately 2 hours before surgery the Examining Veterinarian performed a physical examination and the clinical assessment of pain and inflammation to determine the basal scores. After surgery pain and inflammation were assessed at six examination time points: t1.5h, t3h, t5h (±30 minutes), t8h (±1hour), t24h and t168 (D7), when t0h corresponded to the end of surgery (extubation).
Clinical assessment of pain and inflammation included assessments of vocalization, attention to wound area, mobility, reaction to pressure at the wound area, general behaviour as well as activity and posture as per SFGCMPS. In addition, pain at rest and after palpation as well as the level of inflammation were assessed at the same time points by VAS ranging from 0 (no pain) to 100 (severe pain manifested by vocalization, aggression, and refusal to allow examination) and from 0 (no inflammation) to 100 (major inflammation as local heat, redness or paresis of the affected area).
Statistical Analysis was performed by use of commercially available software (SigmaPlot for Windows version 13.0). The area under the curve (AUC) was calculated for observable pain during the initial 8 and 24 hours, and it was considered as the primary efficacy variable. All analyses applied a two-sided significance level α = 0.05 and a power β = 80%. Demographic and baseline data were compared using the Mann-Whitney U test. Gender was compared with the Fisher exact probability test in contingency tables. Efficacy variables were analysed by repeated measures ANOVA.

[3] = test system: dogs undergoing experimental orthopaedic surgery; assay: Control of postoperative pain and inflammation after experimental orthopaedic (knee) surgery, Maquet Modified Procedure; assay type: in vivo, Beagle dogs
Method: The study was performed with 6 clinically healthy Beagle dogs with similar age and weight that were experimentally subjected to knee surgery (repair of cranial cruciate ligament rupture). […] All surgeries were conducted under the same preoperative, intraoperative and postoperative protocols and performed by the same surgeon. A highly standardized surgical technique, Maquet Modified Procedure (MMP) (12) was implemented.
For each dog the study lasted 17 days, including a 7-day acclimatization period. On day D-1 (approximately 24h before the intervention) the five dogs in the TG received a single oral dose (8 mg/kg) of the TP, the one dog in the CG received a single subcutaneous dose (0.1 mg/kg) of the RP. […] On day D0 all dogs underwent knee surgery in the right knee. From day D1 up to day D10 dogs were closely examined and signs of pain and discomfort were blindly evaluated and rated using the Short Form of the Glasgow Composite Pain Scale (SFGCPS) ranging from 0 to 24 (13 and http://www.newmetrica.com/cmps/). On day D-1 dogs were also examined to rule out signs of pain or discomfort.

[4] = 1.5h after surgery, 8 mg/kg oral on D-1
[5] = 3h after surgery, 8 mg/kg oral on D-1
[6] = 5h after surgery, 8 mg/kg oral on D-1
[7] = 8h after surgery, 8 mg/kg oral on D-1
[8] = 24h after surgery, 8 mg/kg oral on D-1

`NS(=O)(=O)c1ccc(N2N=C(C(F)(F)F)CC2c2ccc(F)cc2F)cc1` (centres unmarked) [E-6087, enflicoxib] was tested, and the “level of inflammation (VAS 0-100) compared with meloxicam” value ([1]; at 3h, p= 0.025) was “lower values”, the “SFGCMPS (AUC), average value” ([1]; initial 24 hours, TG: E-6087 8 mg/kg oral on D-1, CG: meloxicam 0.2 mg/kg s.c. or i.v. on D0, then 0.1 mg/kg oral daily D1 to D7, p=0.7962) was 95.50±57.70 and the “SFGCMPS at each time point compared with CG” value ([1]; no statistically significant differences at any time point) was “most values were lower”. For the same molecule, the “values of AUC for the first 24 hours after surgery compared with Placebo” value ([2]; 8 mg/kg oral on D-1, not statistically significant (p=0.266)) was “almost half”, the “AUC for the first 8 hours compared with Placebo” value ([2]; 8 mg/kg oral on D-1, p=0,033) was “statistically significant lower values” and the “Attention to wound (SFGCMPS average value)” value (from here on “Attention to wound”) [2, 4] was 0. For the same molecule, the “Demeanour (SFGCMPS average value)” value [2, 4] was 0.83, the “Mobility (SFGCMPS average value)” value [2, 4] was 0.33 and the “Posture/Activity (SFGCMPS average value)” value [2, 4] was 0.17. For the same molecule, the “Pressure on wound (SFGCMPS average value)” value (“Pressure on wound” for short) [2, 4] was 0.33, the “Total SFGCMPS (average value)” value [2, 4] was 1.92 and the “Vocalization (SFGCMPS average value)” value [2, 4] was 0.25. The “Attention to wound” value [2, 5] was 0.08, the “Demeanour (SFGCMPS average value)” value [2, 5] was 0.50 and the “Mobility (SFGCMPS average value)” value [2, 5] was 0. The “Posture/Activity (SFGCMPS average value)” value [2, 5] was 0.08, the “Pressure on wound” value [2, 5] was 0.42 and the “Total SFGCMPS (average value)” value [2, 5] was 1.33. For the same molecule, the “Vocalization (SFGCMPS average value)” value [2, 5] was 0.25, the “level of inflammation (VAS 0-100) compared with Placebo” value ([2]; 3 hours after surgery, p=0.021) was “Placebo was greater than for the group treated with E-6087” and the “Attention to wound” value [2, 6] was 0.08. The “Demeanour (SFGCMPS average value)” value [2, 6] was 0.17, the “Mobility (SFGCMPS average value)” value [2, 6] was 0 and the “Posture/Activity (SFGCMPS average value)” value [2, 6] was 0. The “Pressure on wound” value [2, 6] was 0.50, the “Total SFGCMPS (average value)” value [2, 6] was 0.75 and the “Vocalization (SFGCMPS average value)” value [2, 6] was 0. For the same molecule, the “Attention to wound” value [2, 7] was 0, the “Demeanour (SFGCMPS average value)” value [2, 7] was 0 and the “Mobility (SFGCMPS average value)” value [2, 7] was 0. For the same molecule, the “Posture/Activity (SFGCMPS average value)” value [2, 7] was 0, the “Pressure on wound” value [2, 7] was 0.67 and the “Total SFGCMPS (average value)” value [2, 7] was 0.50. The “Vocalization (SFGCMPS average value)” value [2, 7] was 0, the “Attention to wound” value [2, 8] was 0 and the “Demeanour (SFGCMPS average value)” value [2, 8] was 0. The “Mobility (SFGCMPS average value)” value [2, 8] was 0, the “Posture/Activity (SFGCMPS average value)” value [2, 8] was 0 and the “Pressure on wound” value [2, 8] was 0.50. For the same molecule, the “Total SFGCMPS (average value)” value [2, 8] was 0.50, the “Vocalization (SFGCMPS average value)” value [2, 8] was 0 and the “AUC0→24h (SFGCMPS, observable pain)” value ([2]; first 24 hours after surgery, 8 mg/kg oral on D-1, primary efficacy variable) was 16,0±15. For the same molecule, the “Total scores for SFGCMPS at each time point compared with Placebo” value ([2]; significant only at 1.5, 3 and 5 hours (p <0,001, 0.007 and 0.042)) was “always lower”, the “alleviating pain and inflammation after soft tissue surgery” value ([2]; single dose of 8 mg/kg) was “effective” and the “need of rescue analgesia” value ([3]; 10 days follow up period) was “None of the animals needed rescue analgesia”. For the same molecule, the “potential adverse effects related to product administration” value ([3]; single oral dose 8 mg/kg on D-1) was “No potential adverse effects related to product administration were recorded” and the “analgesic agent in the postoperative period after orthopaedic surgery” value ([3]; single oral dose 8 mg/kg on D-1, SFGCPS 0-24, D1 to D10) was “effective”.
